Measurements published in US20220132847A1, “CINNOLINIUM COMPOUNDS FOR USE IN A METHOD OF CONTROLLING UNWANTED PLANT GROWTH” (SYNGENTA CROP PROTECTION AG, priority 2019, published 2022).
Where a name gives a salt, the structure may show the parent alone.

How the values were obtained:
Test in all cases: Post-emergence efficacy, glasshouse
Type in all cases: in vivo
[1] = tested on: Echinochloa crus-galli (ECHCG); conditions: Echinochloa crus-galli, post-emergence, 312 h; Application Rate 1000 g/Ha; evaluated after 13 days; 100=total damage to plant, 0=no damage to plant; read-out: Control of weed species after post-emergence application, ECHCG
Description: (§1) Seeds of a variety of test species were sown in standard soil in pots. After cultivation for 14 days (post-emergence) under controlled conditions in a glasshouse (at 24/16° C., day/night; 14 hours light; 65% humidity), the plants were sprayed with an aqueous spray solution derived from the dissolution of the technical active ingredient formula (I) in a small amount of acetone and a special solvent and emulsifier mixture referred to as IF50 (11.12% Emulsogen EL360™+44.44% N-methylpyrrolidone+44.44% Dowanol DPM glycol ether), to create a 50 g/l solution which was then diluted to required concentration using 0.25% or 1% Empicol ESC70 (Sodium lauryl ether sulphate)+1% ammonium sulphate in water as diluent.
(§2) The test plants were then grown in a glasshouse under controlled conditions (at 24/16° C., day/night; 14 hours light; 65% humidity) and watered twice daily. After 13 days the test was evaluated (100=total damage to plant; 0=no damage to plant).
(§3) Ipomoea hederacea (IPOHE), Euphorbia heterophylla (EPHHL), Chenopodium album (CHEAL), Amaranthus palmeri (AMAPA), Lolium perenne (LOLPE), Digitaria sanguinalis (DIGSA), Eleusine indica (ELEIN), Echinochloa crus-galli (ECHCG), Setaria faberi (SETFA)

[2] = tested on: Digitaria sanguinalis (DIGSA); conditions: Digitaria sanguinalis, post-emergence, 312 h; Application Rate 1000 g/Ha; evaluated after 13 days; 100=total damage to plant, 0=no damage to plant; read-out: Control of weed species after post-emergence application, DIGSA
Description: as §1, §2, §3

Lolium perenne (LOLPE) = conditions: Lolium perenne, post-emergence, 312 h; Application Rate 1000 g/Ha; evaluated after 13 days; 100=total damage to plant, 0=no damage to plant; read-out: Control of weed species after post-emergence application, LOLPE
Description: as §1, §2, §3

[3] = tested on: Chenopodium album (CHEAL); conditions: Chenopodium album, post-emergence, 312 h; Application Rate 1000 g/Ha; evaluated after 13 days; 100=total damage to plant, 0=no damage to plant; read-out: Control of weed species after post-emergence application, CHEAL
Description: as §1, §2, §3

[4] = tested on: Ipomoea hederacea (IPOHE); conditions: Ipomoea hederacea, post-emergence, 312 h; Application Rate 1000 g/Ha; evaluated after 13 days; 100=total damage to plant, 0=no damage to plant; read-out: Control of weed species after post-emergence application, IPOHE
Description: as §1, §2, §3

[5] = tested on: Euphorbia heterophylla (EPHHL); conditions: Euphorbia heterophylla, post-emergence, 312 h; Application Rate 1000 g/Ha; evaluated after 13 days; 100=total damage to plant, 0=no damage to plant; read-out: Control of weed species after post-emergence application, EPHHL
Description: as §1, §2, §3

[6] = tested on: Amaranthus palmeri (AMAPA); conditions: Amaranthus palmeri, post-emergence, 312 h; Application Rate 1000 g/Ha; evaluated after 13 days; 100=total damage to plant, 0=no damage to plant; read-out: Control of weed species after post-emergence application, AMAPA
Description: as §1, §2, §3

Eleusine indica (ELEIN) = conditions: Eleusine indica, post-emergence, 312 h; Application Rate 1000 g/Ha; evaluated after 13 days; 100=total damage to plant, 0=no damage to plant; read-out: Control of weed species after post-emergence application, ELEIN
Description: as §1, §2, §3

Setaria faberi (SETFA) = conditions: Setaria faberi, post-emergence, 312 h; Application Rate 1000 g/Ha; evaluated after 13 days; 100=total damage to plant, 0=no damage to plant; read-out: Control of weed species after post-emergence application, SETFA
Description: as §1, §2, §3

SMILES | pest or weed control at 1000 g/ha [1] | pest or weed control at 1000 g/ha [2] | pest or weed control at 1000 g/ha (Lolium perenne (LOLPE)) | pest or weed control at 1000 g/ha [3] | pest or weed control at 1000 g/ha [4] | pest or weed control at 1000 g/ha [5] | pest or weed control at 1000 g/ha [6] | pest or weed control at 1000 g/ha (Eleusine indica (ELEIN)) | pest or weed control at 1000 g/ha (Setaria faberi (SETFA))
C[n+]1cc(C(=O)[O-])c2ccccc2n1 [Compound A1] | 20% | 90% | 50% | 100% | 70% | 70% | 100% | 100% | 30%
COC(=O)c1c[n+](C)nc2ccccc12 [Compound A2] | 30% | 60% | 30% | 70% | 70% | 70% | 100% | 70% | 60%
C[n+]1cc(C(=O)O)c2ccccc2n1 [Compound A3, 2-methylcinnolin-2-ium-4-carboxylic acid methyl sulfate] | 30% | 50% | 20% | 20% | 20% | 30% | 20% | 60% | 10%
CONC(=O)c1c[n+](C)nc2ccccc12 [Compound A4, N-methoxy-2-methyl-cinnolin-2-ium-4-carboxamide 2,2,2-trifluoroacetate] | 10% | 0% | 0% | 40% | 20% | 50% | 10% | 20% | 10%
C[n+]1cc(C(=O)[N-]S(C)(=O)=O)c2ccccc2n1 [Compound A5, (2-methylcinnolin-2-ium-4-carbonyl)-methylsulfonyl-azanide] | 50% | 90% | 50% | 90% | 90% | 90% | 100% | 90% | 70%
C[n+]1cc(S(=O)(=O)[O-])c2ccccc2n1 [Compound A6, 2-methylcinnolin-2-ium-4-sulfonate] | 10% | 10% | 10% | 60% | 0% | 60% | 10% | 10% | 10%
C[n+]1cc(P(C)(=O)O)c2ccccc2n1 [Compound A7] | 70% |  | 40% | 100% | 70% | 90% |  | 80% | 70%
C[C@@H](NC(=O)c1c[n+](C)nc2ccccc12)C(=O)OC(C)(C)C [Compound A8, tert-butyl (2R)-2-[(2-methylcinnolin-2-ium-4-carbonyl)amino]propanoate iodide] | 20% | 20% | 20% | 30% | 10% | 30% | 20% | 10% | 10%
C[C@@H](NC(=O)c1c[n+](C)nc2ccccc12)C(=O)O [Compound A9, (2R)-2-[(2-methylcinnolin-2-ium-4-carbonyl)amino]propanoic acid 2,2,2-trifluoroacetate] | 20% | 40% | 10% | 50% | 50% | 50% | 50% | 40% | 30%
CNS(=O)(=O)[N-]C(=O)c1c[n+](C)nc2ccccc12 [Compound A10, 2-methyl-N-(methylsulfamoyl)cinnolin-2-ium-4-carboxamide] | 50% | 70% | 30% | 70% | 30% | 70% | 80% | 60% | 50%
CN(C)S(=O)(=O)[N-]C(=O)c1c[n+](C)nc2ccccc12 [Compound A11] | 50% | 40% | 20% | 60% | 60% | 70% | 40% | 30% | 50%
C[n+]1cc(C(=O)[N-]S(=O)(=O)C2CC2)c2ccccc2n1 [Compound A12] | 30% | 20% | 40% | 60% | 70% | 70% | 60% | 30% | 60%
CS(=O)(=O)[N-]C(=O)c1c[n+](CC(=O)NS(C)(=O)=O)nc2ccccc12 [Compound A13] | 10% | 10% | 10% | 0% | 10% | 10% | 0% | 10% | 10%
CS(=O)(=O)[N-]C(=O)c1c[n+](CC(F)F)nc2ccccc12 [Compound A14, [2-(2,2-difluoroethyl)cinnolin-2-ium-4-carbonyl]-methylsulfonyl-azanide] | 20% | 40% | 0% | 20% | 40% | 40% | 20% | 30% | 30%
COC(=O)C[n+]1cc(C(=O)[N-]S(C)(=O)=O)c2ccccc2n1 [Compound A15, [2-(2-methoxy-2-oxo-ethyl)cinnolin-2-ium-4-carbonyl]-methylsulfonyl-azanide] | 20% | 0% | 10% | 30% | 10% | 30% | 50% | 0% | 10%
Cn1nnnc1[N-]C(=O)c1c[n+](C)nc2ccccc12 [Compound A16] | 20% | 0% | 10% | 60% | 40% | 30% | 50% | 0% | 10%
